Assay results reported in PubChem BioAssay (NCI).
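Values below derive from 48-hour exposures of cells grown in 96-well plates, with endpoints linearly interpolated between the two concentrations bracketing the appropriate inhibition level. Here, GI50 denotes the concentration required for 50% inhibition of growth. Definition used: TGI = concentration required for complete inhibition of growth.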

Assays:
Experiment in all cases: NCI-60 cell line screen, 48 h
[1] = test system: NCI-H226 lung
[2] = test system: SF-295 CNS
[3] = test system: RPMI-8226 leukemia
[4] = test system: UO-31 renal
[5] = test system: MOLT-4 leukemia
[6] = test system: SW-620 colon
[7] = test system: K-562 leukemia
[8] = test system: NCI/ADR-RES ovarian

| Compound | GI50 [1] [µM] | TGI [1] [µM] | GI50 [2] [µM] | TGI [2] [µM] | GI50 [3] [µM] | TGI [3] [µM] | GI50 [4] [µM] | TGI [4] [µM] | GI50 [5] [µM] | TGI [5] [µM] | GI50 [6] [µM] | TGI [6] [µM] | GI50 [7] [µM] | TGI [7] [µM] | GI50 [8] [µM] | TGI [8] [µM] |
| --- | --- | --- | --- | --- | --- | --- | --- | --- | --- | --- | --- | --- | --- | --- | --- | --- |
| CCCC(=O)Nc1c(I)cc(I)c(CC(CC)C(=O)O)c1I (stereo unspecified) | > 100 | > 100 | > 100 | > 100 | > 100 | > 100 | > 100 | > 100 | > 100 | > 100 | > 100 | > 100 | > 100 | > 100 | > 100 | > 100 |
| S=C1SCN(C2CCCCCCCCCCC2)CN1C1CCCCCCCCCCC1 | – | > 100 | – | > 100 | – | > 100 | – | > 100 | – | > 100 | – | > 100 | – | > 100 | – | > 100 |
| CCCCCC(=C/c1ccccc1)/C=N/N=C(N)N | 2.2 | 5.51 | 1.67 | 3.49 | 1.42 | 3.55 | 1.19 | 2.5 | 1.53 | 3.51 | 1.52 | 3.16 | – | – | 1.53 | 3.3 |
| C[C@@H]1OC(=O)NN=C1c1ccc(-c2ccc(F)cc2)c(C(F)(F)F)c1 | 2.57 | 20.6 | 5.49 | 19.2 | 5.78 | 51.2 | 7.79 | 20.9 | 5.27 | 33.4 | 10.2 | 25.3 | 3.2 | > 100 | 5.08 | 21.2 |
| O=C1c2ccccc2-c2c1c1ccc([N+](=O)[O-])cc1c(=O)n2CCCn1ccnc1 | 0.0183 | 0.0637 | 0.306 | 2.29 | 0.0153 | 0.0653 | 0.724 | 2.62 | 2.12 | 4.64 | – | 0.529 | 0.886 | 5.16 | 0.0465 | 0.366 |
| CCCc1n(Cc2ccc3ccccc3n2)cc[n+]1Cc1ccc2ccccc2c1 | 1.2 | 7.6 | 2.06 | 5.76 | 0.275 | 1.62 | 12 | 25.3 | 0.708 | 6.08 | 1.91 | 11.7 | 0.428 | 8.27 | 32.8 | > 100 |
| C[C@@]1(O)CCC[C@H]1n1c(=O)c(C(F)F)cc2cnc(NC3CCN(S(C)(=O)=O)CC3)nc21 | – | – | 1.83 | 16.2 | 1.11 | 8.64 | 1.2 | 3.97 | – | – | 0.0891 | 6.46 | 1.96 | > 100 | 12.7 | > 100 |
| CC1(C)OC2COC(c3[nH]nc4c(=O)[nH]c(=O)[nH]c34)C2O1 (stereo unspecified) | – | > 100 | – | > 100 | – | > 100 | – | > 100 | – | > 100 | – | > 100 | – | > 100 | – | > 100 |
| CN[C@H]1CC[C@]23C[C@]24CC[C@]2(C)[C@@H]([C@H](C)N(C)C)CC[C@@]2(C)[C@@H]4CC[C@H]3C1(C)C | – | 34.9 | – | 31.2 | – | 31.3 | – | 24.5 | – | 60.1 | – | 32.5 | – | – | – | 36.6 |
| NC(N)=NC(N)=Nc1ccc(S(N)(=O)=O)cc1 | – | > 100 | – | > 100 | – | > 100 | – | > 100 | – | > 100 | – | > 100 | – | > 100 | – | > 100 |
| CC1=CC2=C(C#N)C(=O)OC2(C)C(c2ccccc2)C1 (stereo unspecified) | – | > 100 | – | > 100 | – | > 100 | – | > 100 | – | > 100 | – | > 100 | – | > 100 | – | > 100 |
| C=C1C(=O)O[C@H]2[C@H]1CC/C(Cn1cc(-c3ccsc3)nn1)=C\CC[C@@]1(C)O[C@@H]21 | 2.09 | 5.51 | 9.61 | 21.5 | – | – | 1.35 | 3.18 | 2.59 | 6.9 | 1.32 | 2.68 | 2.51 | 11.7 | 3.79 | 16.9 |
| CCC(=O)Nc1ncnc2ncn(C(=O)CC)c12 | – | – | – | > 100 | – | > 100 | – | > 100 | – | > 100 | – | > 100 | – | > 100 | – | > 100 |
| O=C(Nc1ccc(-n2ccc3c(NC(=O)c4ccccc4)nccc32)cc1)c1ccc(N2CCOCC2)c(C(F)(F)F)c1 | 3.18 | 59.4 | 0.0621 | 1.7 | 0.0912 | > 100 | 0.557 | 19.5 | 0.0421 | > 100 | 0.0697 | > 100 | 0.0429 | > 100 | 0.198 | 29.9 |
| O=C(O)CNC(=O)C1NC(C(F)(F)F)(C(F)(F)F)OC1(C(F)(F)F)C(F)(F)F (stereo unspecified) | – | > 100 | – | > 100 | – | > 100 | – | > 100 | – | > 100 | – | > 100 | – | > 100 | – | > 100 |
| COC1C(O)CC(OC2CC(OC3CC(O[C@@H]4C(=O)c5c(cc6cc(OC7CC(OC8CC(O)C(O)C(C)O8)C(O)C(C)O7)c(C)c(O)c6c5O)CC4[C@H](OC)[C@@H](O)C(C)=O)OC(C)C3O)OC(C)C2O)OC1C (stereo partly specified) | 0.0507 | 0.181 | 0.00752 | > 33.3 | 0.014 | > 33.3 | 0.0315 | 11.3 | 0.00749 | 0.34 | 0.0125 | > 33.3 | 0.0163 | > 33.3 | > 28.2 | > 33.3 |
| COc1ccccc1N1CCN(CCCOc2ccc(C(=O)/C=C3/C(=O)Nc4ccccc43)cc2)CC1 | 14.3 | 65.7 | 12.5 | 32.4 | 2.6 | 28.6 | 16.3 | > 100 | 1.69 | 17.5 | 12.6 | 25.5 | 3.51 | > 34.8 | 9.53 | 40.9 |
| CN1CCN(Cc2ccc(NC(=O)c3cccc(C#Cc4c(N)ncc5ccc(F)cc45)c3)cc2C(F)(F)F)CC1 | 0.265 | 2.7 | 0.917 | 1.78 | 1.03 | 2.59 | 0.533 | 1.27 | 0.681 | 1.63 | 0.645 | 1.39 | 0.005 | 0.674 | 1.02 | 2.55 |
